The values below come from patent publication US20250020658A1, “METHODS FOR SYNTHESIZING AND IDENTIFYING SYNTHETIC PROTEINS INCLUDING TARGETED THERAPEUTICS FOR NEURODEGENERATIVE DISORDERS BASED ON BIO-MIMICRY APPROACHES” (University of Denver, priority 2023, published 2025).

Entries after “also recorded” stand apart in the source; their conditions may differ. Like-named read-outs stand apart in the source and are kept apart here.

For data set [1], the target named is α-Synuclein (αS) aggregation (Homo sapiens, UniProt P37840). In words: Thioflavin T (ThT) dye-based aggregation assay against aggregation of αS. Format: biochemical. Conditions: lower ThT intensity = higher antagonist activity. An excerpt:
The resulting dimers are again evaluated with a ThT assay (step (g)), and the best performing dimer is selected in a step (h). The process is repeated to screen for the best performing trimer (step (i)), and so on.
In particular, FIG. 21 is a graph comparing the relative ThT intensities of various molecules synthesized using the 2D FAST process, in accordance with embodiments. The lower the ThT intensity, the higher the antagonist activity of ligands against the target protein (synuclein aggregation in this example).

In data set [2] the test system is C. elegans PD models. The data set is described as follows: C. elegans Parkinson's disease models. Type of data set: in vivo. Conditions: for rescue of PD phenotypes: multiple C. elegans PD models: degeneration of dopaminergic neurons, increase in reactive oxygen species, reduced motility. An excerpt:
Using OPs as the basis, the 2D FAST approach was used to identify potent antagonists of α-Synuclein (αS) aggregation, a process central to Parkinson's disease (PD) as discussed above. […] (See, for example, “A 2D Fragment-Assisted Protein Mimetic Approach to Rescue α-Synuclein Aggregation Mediated Early and Post-Disease Parkinson's Phenotypes,” bioRxiv preprint posted 2022 Jul. 13, doi: https://doi.org/10.1101/2022.07.11.499659)

The nature of data set [3]: Parallel Artificial Membrane Permeability Assay (PAMPA). Conditions: NS163 compared with NS132. Format: in vitro ADME. An excerpt:
FIG. 22 is a graph comparing the cell permeability of various ligands identified and synthesized using the 2D FAST approach and assessed using the Parallel Artificial Membrane Permeability Assay (PAMPA) technique. […] FIG. 25 is a graph comparing the relative ThT intensities of various molecules synthesized using the 2D FAST process in the presence of αS, in accordance with embodiments.
On the technique in general: PAMPA measures passive passage across an artificial lipid membrane.

The conditions of data set [4]: mouse model; cited from earlier work.
In data set [5] the target is αS oligomers (Homo sapiens, UniProt P37840). Conditions: pathological high molecular weight αS oligomers vs αS monomers (native conformation), cited from earlier work.

As for `Cc1ccc(NC(=O)c2ccc([N+](=O)[O-])c(NCC3CCCCC3)n2)c(OCC(=O)O)n1` [NS55], the “antagonist activity against αS aggregation” value (shortened to “antagonist activity”) in data set [1] is “potent inhibitor of α-Synuclein aggregation”.

On to `Cc1ccc(NC(=O)c2ccc(NC(=O)c3ccc([N+](=O)[O-])c(NCCc4c[nH]c5ccccc45)n3)c(NCC3CCCCC3)n2)c(OCC(=O)O)n1` [NS132], for which, in data set [2], the “rescue of PD phenotypes” value is listed as “very effective ligands in rescuing PD phenotypes”. In data set [1], the “antagonist activity” value was “most potent tripyridyl; also recorded: antagonist of the multiple facets of αS aggregation”.

As for `Cc1ccc(NC(=O)c2ccc(NC(=O)c3ccc([N+](=O)[O-])c(NCCc4c[nH]c5ccccc45)n3)c(NCC3CCCCC3)n2)c(OCC(=O)NO)n1` [NS163], the cell permeability entry in data set [3] was “increased cell permeability; also recorded: better cell permeability”. Moreover, the “activity within a C. elegans Parkinson's disease model” value in data set [2] (NS163 as enhanced version of NS132) was “increased cell permeability and activity”. In addition, in data set [2], the “rescue of PD phenotypes” value is “very effective ligands in rescuing PD phenotypes”. Moreover, in data set [1], the “antagonist activity” value was “potent antagonist of α-Synuclein aggregation; also recorded: without sacrificing activity”.

For `COC(=O)c1cc(OCC(=O)O)c2cccc(NC(=O)c3cc(OC(C)C)c4cccc(NC(=O)c5cc(OCC(=O)O)c6cccc(NC(=O)c7cc(OC(C)C)c8cccc([N+](=O)[O-])c8n7)c6n5)c4n3)c2n1` [SK-129], the “crossing of the BBB” value in data set [4] is reported as “efficiently crosses the BBB”. In data set [4], the toxicity entry was “without demonstrating any toxicity”. Besides, the “affinity to αS oligomers relative to αS monomers” value is on record as 10 fold in data set [5] and “ten-fold higher affinity” in data set [5] (listed as SK-α129).
